Measured values from EPA's ToxValDB 9.5 (doi:10.2903/j.efsa.2005.29r).
Several values for one entry are separate records, joined by “and”; a condition that tells them apart may be missing. Equal values may be shown once.

Tests used:
Canidae = conditions: subchronic; duration: 90 days; oral; Dog Other; clinical signs
Daphnia magna = conditions: chronic/long-term
Oryctolagus sp. = conditions: developmental; development
Oncorhynchus mykiss = conditions: for NOEC: chronic/long-term
Aphidius rhopalosiphi = conditions: not reported; mortality
Apis mellifera = conditions: acute, mortality
Coturnix coturnix = conditions: oral
Typhlodromus pyri = assay: LR50; higher = less toxic; conditions: chronic/long-term; duration: 7 days; mortality

## Cc1ccc(N(SC(F)(Cl)Cl)S(=O)(=O)N(C)C)cc1 [Tolylfluanid]
Canidae
  NOAEL: 33 mg/kg-day
Daphnia magna; duration: 40 days
  NOAEC: 180 µg/L
Daphnia magna; duration: 51 days
  NOAEC: 99 µg/L
Tagia sp.; acute, duration: 14 days, mortality
  LC50: > 1000 mg/kg
Tagia sp.; chronic/long-term, reproduction
  NOEC: 24000 g/ha
Oryctolagus sp.
  NOAEL: 25 mg/kg-day
Oncorhynchus mykiss; acute, duration: 96 hours, mortality
  LC50: 0.045 µg/mL and 0.016 µg/mL
Oncorhynchus mykiss; duration: 28 days
  NOEC: 44 µg/L
Oncorhynchus mykiss; duration: 35 days
  NOEC: 60 µg/L
Rattus norvegicus; acute, oral, mortality
  LD50: > 5000 mg/kg
Rattus norvegicus; reproduction developmental, M, body weight
  NOAEL: 12 mg/kg-day
Rattus norvegicus; short-term, duration: 28 days, oral, diet
  NOEC: 1500 mg/kg-day
Aphidius rhopalosiphi
  LEL: 2500 g/ha
Apis mellifera; duration: 48 hours, dermal
  LD50: > 196 µg/piece
Apis mellifera; oral, unspecified
  LD50: > 197 µg/piece
Coturnix coturnix; acute, duration: 5 days, diet, mortality
  LC50: > 5000 mg/kg
Coturnix coturnix; acute, mortality
  LD50: > 2000 mg/kg
Coturnix coturnix; reproduction developmental, duration: 21 weeks, diet
  NOEC: 791 mg/kg-day
Typhlodromus pyri
  LR50: 247 g/ha
